Measurements: patent publication US9375435B2, “Use of a DNA expression construct” (MOLOGEN AG, priority 2010, dated 2016)

Legend:
[1] = system: A375 melanoma xenotransplanted-tumours; test: Chemo-sensitization of xenotransplanted tumours, intratumoral jet injection; assay type: in vivo; conditions: twice 150 μg DNA construct, twice 0.5 mg/kg vindesine where indicated
Description: A) In vitro chemo-sensitization assay results. B) Chemo-sensitization of A375 melanoma xenotransplanted tumors.
The intratumoral jet injection was performed using twice 150 μg of the dumbbell-shaped DNA construct and where indicated additionally twice 0.5 mg/kg tumour vindesine.
On the y-axis is the median of the relative tumour volume shown for the indicated days after transfer (x-axis).

A375 melanoma cells = conditions: vindesine 12.8 μg per ml
Description: In further experiments the effect of TNF-α expression on cell vitality and tumour volume was investigated.

CC[C@]1(O)C[C@@H]2CN(CCc3c([nH]c4ccccc34)[C@@](C(=O)OC)(c3cc4c(cc3OC)N(C)[C@H]3[C@@](O)(C(N)=O)[C@H](O)[C@]5(CC)C=CCN6CC[C@]43[C@@H]65)C2)C1 [vindesine]
median of the relative tumour volume [1]: reduces the average tumour volume
relative cell vitality (A375 melanoma cells): 0.6
